Results published in patent publication US11179398B2, “Purine derivative for use in the treatment or prevention of diseases caused by a nonsense mutation” (MUSÉUM NATIONAL D'HISTOIRE NATURELLE, priority 2016, dated 2021).
Entries after “also recorded” stand apart in the source; their conditions may differ. Read-outs that look alike come from different tables or passages of the source. Marks after values point to notes of the source that are not given here.

Experiments:
[1] = test system: Salmonella typhimurium TA1535; conditions: positive control
Experimental: (§1) The positive controls used are:
(§2) The experiments were conducted once in triplicate.

[2] = test system: Salmonella typhimurium TA100; conditions: positive control
Experimental: as §1, §2

[3] = test system: luciferase gene carrying a UGA premature stop codon; test: Luciferase readthrough assay in transfected HeLa cells, UGA construct; assay type: cell-based, human; conditions: for correcting activity of nonsense mutations (luciferase activity): 25 μM, 24 hours; for concentration at which the molecule starts to significantly correct the nonsense mutation: dose-response 0.39 μM to 600 μM; for concentration of maximum correction effectiveness: luciferase activity
Text: The DMSO represents the negative control.

[4] = test system: L5178Y TK+/- cells; test: In vitro test of the micronuclei; conditions: for treated/solvent ratio: positive control
Experimental: (§5) The cells used are L5178Y TK^+/− cells obtained from ATCC (American Type Culture Collection, Manassas, USA) via Biovalley (Marne-la-Vallée, France) for the induction of micronuclei.
(§6) In the test with metabolic activation, the culture medium is supplemented with 5% of the S9 mixture, thus the final concentration of S9 in the treated medium is of 2%.
(§7) The cells were treated for 24 hours in the absence of the S9 mixture or treated for 3 hours followed by 24 hours of culture without treatment when the S9 mixture was present in the culture medium.
(§8) The experiment was conducted and 1000 single-nucleus cells were analysed per culture.
(§9) The assessment of the cytotoxicity was determined by measuring the doubling of the cell population at the end of the experiment.

[5] = test system: Salmonella typhimurium TA98; test: Compensatory mutation test on bacteria, TA98; conditions: positive control, TA98, with S9, 1.00 μg/well
Experimental: (§10) The test was conducted in the absence or presence of a metabolic solution called S9 mixture (S9 mixture of rat liver treated with aroclor. The concentration of the S9 fraction in the S9 mixture is of 10%).
(§11) The solvent used is dimethyl sulfoxide (DMSO), the volume containing the molecule to be tested or DMSO alone is of 25 μl per well.
(§12) For the tests conducted in the presence of the S9 mixture, 2-anthranine at 1 μg/well for the TA98, TA100 and TA1535 strains or of 5 μg/well for the TA102 or TA1537 strains.
(§13) The treatment in the absence of presence of the S9 mixture was conducted by adding it directly in the wells.

[6] = test system: Salmonella typhimurium TA1537; test: Compensatory mutation test on bacteria, TA1537; conditions: positive control, TA1537, with S9, 5.0 μg/well
Experimental: as §10, §11, §12, §13

[7] = test system: Salmonella typhimurium TA102; conditions: positive control, TA102, with S9, 5.00 μg/well
Experimental: as §1, §2

[8] = test system: Calu-6 cells; test: Cellular growth and apoptosis measurement; assay type: cell-based
Experimental: Briefly, the cells are removed from their support using typisin and centrifuged for 5 minutes at 200 g.

[9] = test system: luciferase gene carrying a UAG premature stop codon; test: Luciferase readthrough assay in transfected HeLa cells, UAG construct; conditions: 25 μM
Text: (§14) The position of the premature stop codon is such that if the protein synthesis stops at the premature stop codon, the synthesised truncated luciferase protein is not functional.

[10] = test system: luciferase gene carrying a premature UGA stop codon; test: Synergy with clitocin, luciferase UGA readthrough assay in HeLa cells; assay type: cell-based, human; conditions: DAP alone at 25 μM
Experimental: The luciferase activity is measured by adding the SteadyLite plus substrate (Perkin Elmer) to the culture medium and the plates are read with a Tristar luminometer (Berthold). The plate is read twice.

[11] = test system: gene TP53 carrying an UGA nonsense mutation at codon 196 (Calu-6 cells); test: Western blot of p53 re-expression in Calu-6 cells; assay type: cell-based
Experimental: (§3) For the purpose of validating the above screening results, the correction of nonsense mutations was measured for endogenous genes carrying nonsense mutations in an immortalised cell line of lung cancer Calu-6 (ATCC, USA) comprising a UGA mutation in the codon 196 of the gene TP53 (FIG. 2A), an immortalised cell line Caco-2 carrying a UAG mutation at the level of codon 204 (FIG. 2B) and an immortalised cell line Caov-3 carrying a UAA nonsense mutation at the level of codon 136 (FIG. 2C).
(§4) The proteins are extracted from the cell in a lysis buffer, then analysed by SDS-PAGE gel at 10% as previously described in Gonzalez-Hilarion et al. (2012). Briefly, after migration, the proteins are transferred onto a nitrocellulose membrane and placed in the presence of an anti-p53 antibody (D01; Santa-Cruz), and then of a secondary anti-mouse antibody (Jackson Immuno Research).

[12] = test system: NMD (mRNA p53 in Calu-6 cells); test: NMD inhibition: RT-PCR of p53 mRNA carrying a UGA nonsense mutation; assay type: cell-based; conditions: 6.25 μM, 25 μM, 24 hours
Text: The RNAs were purified with RNazol (MRC) and underwent a RT-PCR as described in Gonzalez-Hilarion et al. (2012). The resulting cDNA were then amplified after 35 cycles of PCR using the p53 sense primer (5′-[…]-3′; SEQ ID NO: 1), antisense p53 (5′-[…]-3′; SEQ ID NO: 2), sense GAPDH (5′-[…]-3′; SEQ ID NO: 3), antisense GAPDH (5′-[…]-3′; SEQ ID NO: 4).

[13] = test system: p53 target genes p21 and Noxa in Calu-6 cells; test: Expression of p53 target genes p21 and Noxa by RT-PCR; assay type: cell-based; conditions: 20 hours
Text: The RNAs were purified with RNazol (MRC) and underwent a RT-PCR as described in Gonzalez-Hilarion et al. (2012). The resulting cDNA were then amplified after 35 cycles of PCR using the p21 mRNA primers (sense: 5′-[…]-3′; SEQ ID NO: 5; antisense 5′-[…]-3′; SEQ ID NO: 6); GADD45 mRNA (sense: 5′-[…]-3′; SEQ ID NO: 7; antisense 5′-[…]-3′; SEQ ID NO: 8); NOXA mRNA (sense: 5′-[…]-3′; SEQ ID NO: 9; antisense 5′-[…]-3′; SEQ ID NO: 10).

[14] = test system: gene TP53 carrying an UAA nonsense mutation at codon 136 (Caov-3 cells); test: Western blot of p53 re-expression in Caov-3 cells; assay type: cell-based
Experimental: as §3, §4

[15] = test system: Calu-6 cells; test: Phenotype of culture cells under white light microscope; assay type: cell-based
[16] = test system: luciferase gene carrying a UAA premature stop codon; test: Luciferase readthrough assay in transfected HeLa cells, UAA construct; conditions: 25 μM
Text: as §14

[17] = test system: L5178Y TK+/- cells; conditions: mouse
Experimental: as §5, §6, §7, §8, §9

[18] = test system: gene TP53 carrying an UAG mutation at codon 204 (Caco-2 cells); test: Western blot of p53 re-expression in Caco-2 cells; assay type: cell-based
Experimental: as §3, §4

[19] = TA1535, without S9, 0.5 μg/well

Structure (SMILES): [N-]=[N+]=[N-] [NaN3, sodium azide]
- average number of revertants per well [1, 19]: 206.7
- treated/solvent ratio [1, 19]: 77.5
- average number of revertants per well ([2]; TA100, without S9, 1.0 μg/well): 232.3
- treated/solvent ratio ([2]; TA100, without S9, 1.0 μg/well): 5.5

Structure (SMILES): Sc1ncc2[nH]cnc2n1 [2-mercaptopurine]
- correcting activity of nonsense mutations (luciferase activity) ([3]; HeLa cells): do not have a correcting activity; also recorded: no correction activity

Structure (SMILES): O=P1(N(CCCl)CCCl)NCCCO1 (stereo not drawn) [CPA, cyclophosphamide, reference compound]
- treated/solvent ratio ([4]; with S9 mix, 6 μg/mL): 60.0 **

Structure (SMILES): CO[C@@]12[C@H](COC(N)=O)C3=C(C(=O)C(C)=C(N)C3=O)N1C[C@@H]1N[C@@H]12 [MMC, mitomycin C, reference compound]
- treated/solvent ratio ([4]; without S9 mix): 100.0 **

Structure (SMILES): Sc1ncnc2nc[nH]c12 [6-mercaptopurine]
- correcting activity of nonsense mutations (luciferase activity) ([3]; HeLa cells): do not have a correcting activity; also recorded: no correction activity

Structure (SMILES): Nc1ccc2cc3ccccc3cc2c1 [2AM, 2-anthramine]
- average number of revertants per well [5]: 686.7
- treated/solvent ratio [5]: 98.1
- average number of revertants per well [6]: 36.0
- treated/solvent ratio [6]: 13.5
- average number of revertants per well ([1]; TA1535, with S9, 1.0 μg/well): 137.7
- treated/solvent ratio ([1]; TA1535, with S9, 1.0 μg/well): 41.3
- average number of revertants per well [7]: 91.0
- treated/solvent ratio [7]: 2.0
- average number of revertants per well ([2]; TA100, with S9, 1.0 μg/well): 696.0
- treated/solvent ratio ([2]; TA100, with S9, 1.0 μg/well): 17.4

Structure (SMILES): Nc1nc(N)c2nc[nH]c2n1 [DAP, 2,6-diaminopurine]
- percentage of apoptotic cells ([8]; DAP 6.25 μM or 25 μM, D4 to D10): ≤ 15%
- effect on the UAG codon (luciferase activity) [9]: no effect
- luminescence measured [10]: 50,000
- synthesis of readthrough protein ([11]; 25 μM of DAP versus G418 600 μM): greater than with G418
- minimal concentration at which wild-size protein p53 (p53 FL) is detected ([11]; Calu-6 cells, 20 hours, Western blot): 6.25 µM
- concentration of maximum production of p53 FL ([11]; Calu-6 cells, Western blot): 25 µM
- inhibition of NMD (stabilising an mRNA carrying a premature stop codon) [12]: not an NMD inhibitor
- correcting activity of nonsense mutations (luciferase activity) ([3]; HeLa cells): able to correct the UGA stop codons much more effectively than G418 or ataluren
- correction of the nonsense UGA mutation (luciferase activity) compared with G418 at 25 μM ([3]; DAP at 25 μM, HeLa cells): eighteen times more effective
- correction of the nonsense UGA mutation (luciferase activity) compared with G418 at 2400 μM ([3]; DAP at 25 μM, HeLa cells): more than three times more effective
- EC50 ([3]; Homo sapiens, HeLa): 54 µM
- correction of the UGA nonsense mutation compared with G418 ([3]; both at 6.25 μM): five times higher
- concentration at which the molecule starts to significantly correct the nonsense mutation [3]: 6.25 µM
- concentration of maximum correction effectiveness ([3]; HeLa cells): 100 µM
- concentration from which the expression of the target genes of p53 increases [13]: ≥ 6.25 µM
- re-expression of protein p53 [14]: does not make it possible to re-express the protein p53
- concentration from which more dying cells (round appearance) are observed [15]: ≥ 600 µM
- doses with severe cytotoxicity ([4]; in the absence of the S9 mixture, 24 hours): greater than 0.15 mM
- doses with slight cytotoxicity ([4]; in the presence of the S9 mixture, 3 hours + 24 hours): greater than 0.07 mM
- genotoxic effect (frequency of cells containing micronuclei) ([4]; in the presence or absence of the S9 mixture, listed as 2,6-DAP): no genotoxic effect; also recorded: does not induce any damage to the chromosomes or cell machinery involved in the cell division
- effect on the UAA codon (luciferase activity) [16]: no effect
- DP (% of the control substance) ([17]; 3 h, 0.01 nM): 76 % of the control substance
- DP (% of the control substance) ([17]; 3 h, 0.02 nM): 89 % of the control substance
- DP (% of the control substance) ([17]; 3 h, 0.04 nM): 91 % of the control substance
- DP (% of the control substance) ([17]; 3 h, 0.07 nM): 74 % of the control substance
- DP (% of the control substance) ([17]; 3 h, 0.29 nM): 73 % of the control substance
- DP (% of the control substance) ([17]; 3 h, 0.58 nM): 54 % of the control substance
- DP (% of the control substance) ([17]; 3 h, 2.33 nM): 44 % of the control substance
- DP (% of the control substance) ([17]; 3 h, 4.66 nM): 40 % of the control substance
- reduction of the doubling of the population ([17]; 24 h): 79-100%
- DP (% of the control substance) ([17]; 24 h, 0.01 nM): 91 % of the control substance
- DP (% of the control substance) ([17]; 24 h, 0.02 nM): 121 % of the control substance
- DP (% of the control substance) ([17]; 24 h, 0.04 nM): 78 % of the control substance
- DP (% of the control substance) ([17]; 24 h, 0.07 nM): 97 % of the control substance
- re-expression of protein p53 [18]: does not make it possible to re-express the protein

Structure (SMILES): CN[C@@H]1[C@@H](O)[C@@H](O[C@@H]2[C@@H](O)[C@H](O[C@H]3O[C@H]([C@@H](C)O)[C@@H](O)[C@H](O)[C@H]3N)[C@@H](N)C[C@H]2N)OC[C@]1(C)O [G418]
- percentage of apoptotic cells ([8]; G418 600 μM, from the 4th day of culture): > 30%
- concentration at which the molecule starts to significantly correct the nonsense mutation [3]: 6.25 µM
- concentration of maximum correction effectiveness ([3]; HeLa cells): > 600 µM

Structure (SMILES): O=C(O)c1cccc(-c2noc(-c3ccccc3F)n2)c1 [ataluren]
- correcting activity of nonsense mutations (luciferase activity) ([3]; HeLa cells): ineffective; also recorded: no correction activity
